Test results: PMC10470909, “cis-Decalin-containing tetramic acids as inhibitors of insect steroidogenic glutathione S-transferase Noppera-bo” (PLOS ONE, 2023)
“Also recorded” adds a separate entry of the source. Like-named read-outs stand apart in the source and are kept apart here.

Key:
[1] = tested on: mitochondrial respiration in HeLa cells; assay: Measurement of mitochondrial respiration (OCR/ECAR, Seahorse XFe96 extracellular flux analyzer); settings: 6 min after sample treatment
Procedure: Changes in oxygen consumption rate (OCR) and extracellular acidification rate (ECAR) were measured using a Seahorse XFe96 analyzer (Agilent, CA, USA).
To confirm this, the effect of 1 on energy metabolism was evaluated using an extracellular flux analyzer, which can simultaneously measure two metabolic properties: oxygen consumption rate (OCR) for an indicative of OXPHOS and extracellular acidification rate (ECAR) for that of glycolysis [20].
Percentage changes in OCR and ECAR (relative to their respective baseline values) induced by test compounds were calculated from S14 Fig. Each data point represents the mean ± standard deviation value at 6 min after sample treatment (n = 3). Note that decreasing OCR and increasing ECAR is a typical phenotype characteristic to mitochondrial respiration inhibitors [20].
Real-time measurements of the OCR and ECAR in HeLa cells were performed after treating the cells with different concentrations of the test samples. To perform the Seahorse XF Cell Mito Stress Test, the cells were treated with oligomycin A (OMA, 1 μM), FCCP (0.125 μM), and rotenone/antimycin A (R/A, 1 μM each) at the indicated times. Data are mean ± s.d. (n = 3 technical replicates) from one representative experiment out of three independent experiments.

[2] = tested on: Pyricularia oryzae kita-1; assay: microbe, parasite or virus in culture; type: cell-based; settings: for IC50: Pyricularia oryzae, KITA1, read-out: Antimicrobial activity (IC50, μM) Po
Escherichia coli HO141 = assay: Antimicrobial assay, E. coli; type: cell-based
[3] = tested on: Aspergillus fumigatus Af293; assay: Antimicrobial assay, A. fumigatus; type: cell-based
[4] = In vitro cytotoxicity, src^ts-NRK; type: cell-based, rat; settings: rat; src^ts-NRK cells
Procedure: (§1) In vitro cytotoxicity and antimicrobial assays were conducted as previously reported.

Candida albicans JCM1542 = assay: Antimicrobial assay, C. albicans; type: cell-based
[5] = tested on: Staphylococcus aureus 209; assay: Antimicrobial assay, S. aureus; type: cell-based
[6] = In vitro cytotoxicity, HeLa; type: cell-based, human; settings: human, HeLa cells (human cervical epidermoid carcinoma cell line)
Procedure: as §1

[7] = In vitro cytotoxicity, HL-60; type: cell-based; settings: human, HL-60 cells (human promyelocytic leukemia cell line)
Procedure: as §1

[8] = tested on: Plasmodium falciparum 3D7; assay: Antimalarial assay, P. falciparum; type: cell-based
HIV-1 integrase = tested on: HIV-1 integrase; parameters: method as in earlier work; settings: cited from earlier work
[9] = tested on: src^ts-NRK, normal rat kidney cells infected with ts25; assay: In vitro cytotoxicity, src^ts-NRK; type: cell-based
Procedure: as §1

[10] = tested on: HeLa, human cervical epidermoid carcinoma cell line; assay: In vitro cytotoxicity, HeLa; type: cell-based; settings: HeLa cells
Procedure: as §1

Solubility in solvents = type: physicochemical; settings: hexane, CHCl3, EtOAc, acetone, MeOH, MeCN, DMSO, or H2O
Procedure: Its molecular formula was determined as C24H31NO6 using HRESITOFMS.

[11] = Escherichia coli HO141, read-out: Antimicrobial activity (IC50, μM) Ec
[12] = Aspergillus fumigatus Af293, read-out: Antimicrobial activity (IC50, μM) Af
[13] = Candida albicans JCM1542, read-out: Antimicrobial activity (IC50, μM) Ca
[14] = Staphylococcus aureus 209, read-out: Antimicrobial activity (IC50, μM) Sa
[15] = Plasmodium falciparum 3D7, read-out: Antimicrobial activity (IC50, μM) Pf
[16] = Escherichia coli, HO141, read-out: Antimicrobial activity (IC50, μM) Ec
[17] = Aspergillus fumigatus, AF293, read-out: Antimicrobial activity (IC50, μM) Af
[18] = Candida albicans, JCM1542, read-out: Antimicrobial activity (IC50, μM) Ca
[19] = Staphylococcus aureus, 209, read-out: Antimicrobial activity (IC50, μM) Sa
[20] = Plasmodium falciparum, 3D7, read-out: Antimicrobial activity (IC50, μM) Pf

Structure (SMILES) | IC50 [2] [µM] | IC50 [4] [µM] | IC50 [6] [µM] | IC50 [7] [µM] | IC50 (Escherichia coli HO141; [16]) [µM] | IC50 [3, 17] [µM] | IC50 (Candida albicans JCM1542; [18]) [µM] | IC50 [5, 19] [µM] | IC50 [8, 20] [µM] | also measured
C/C=C/[C@@H]1C=C[C@@H]2C[C@H](C)CC[C@H]2[C@]1(C)C(=O)C1=C(O)[C@H](CO)N(C)C1=O [Compound 1, equisetin] | 0.15 | 20 | 35 | 12 |  |  |  |  |  | change in extracellular acidification rate (ECAR) [1]: increase in ECAR; change in oxygen consumption rate (OCR) [1]: decrease in OCR; IC50 (Escherichia coli HO141; [11]): 13 µM; IC50 [3, 12]: 29 µM; IC50 (Candida albicans JCM1542; [13]): 29 µM; IC50 [5, 14]: 1.4 µM; IC50 [8, 15]: 12 µM; HIV-1 integrase inhibitory activity (in words) (HIV-1 integrase): inhibit HIV-1 integrase activity approximately equally
C/C=C/C=C/[C@H]1C(C)=C[C@H]2C[C@@H](C)CC[C@@H]2[C@@]1(C)C(=O)C1=C(O)[C@@H](CO)N(C)C1=O [Compound 2, phomasetin] | 0.044 | 11 | 6.1 | 3.4 | 1.3 | 21 | 21 | 0.14 | 1.8 | HIV-1 integrase inhibitory activity (in words) (HIV-1 integrase): inhibit HIV-1 integrase activity approximately equally
C/C=C/[C@H]1C=C[C@H]2C[C@H](C)CC[C@H]2[C@]1(C)C(=O)C1=C(O)[C@H](CO)N(C)C1=O [Compound 3, cis-equisetin] | 0.46 | 35 | 46 | 14 |  |  |  |  |  | fold lower activity compared with that of 1, P. oryzae ([2]; growth inhibitory activity against P. oryzae, relative to 1): 3 fold; IC50 (Escherichia coli HO141; [11]): 20 µM; IC50 [3, 12]: 40 µM; IC50 (Candida albicans JCM1542; [13]): 40 µM; IC50 [5, 14]: 5.6 µM; fold lower activity compared with that of 1, S. aureus ([5]; growth inhibitory activity against S. aureus, relative to 1): 4 fold; IC50 [8, 15]: 13 µM
C/C=C/C=C/[C@@H]1C(C)=C[C@@H]2C[C@@H](C)CC[C@@H]2[C@@]1(C)C(=O)C1=C(O)[C@@H](CO)NC1=O [Compound 4, N-demethyl-cis-phomasetin] | 2 | > 75 | > 75 | 22 | 1.5 | 58 | 9 | 6 | 13 | cytotoxicity against src^ts-NRK (in words) [9]: no cytotoxicity; cytotoxicity against HeLa (in words) [10]: no cytotoxicity
C/C=C/C=C/[C@H]1C(C)=C[C@H]2C[C@@H](C)CC[C@@H]2[C@@]1(C)C(=O)C1=C(O)[C@@H](CO)NC1=O [Compound 5, N-demethylphomasetin] | 1.3 | 63 | 40 | 11 | 2.5 | 9.8 | 3.8 | 0.2 | 4.8 | 
C/C=C/C=C/[C@@H]1C(C)=C[C@@H]2C[C@@H](C)CC[C@H]2[C@]1(C)C(=O)C1=C(O)C(CO)NC1=O (some centres unmarked) [Compound 6] | 5.5 | > 70 | > 70 | 12 | > 70 | > 70 | 65 | 3.8 | 23 | 
CC1=C[C@H]2C[C@@H](C)CC[C@@H]2[C@@](C)(C(=O)C2=C(O)[C@@H](CO)N(C)C2=O)[C@H]1/C=C/C=C/CO [Compound 7] | 12 |  | 28 | 22 | 21 | > 70 | > 70 | 1.4 | 4.7 | 
CC1=C[C@@H]2C[C@@H](C)CC[C@@H]2[C@@](C)(C(=O)C2=C(O)[C@@H](CO)NC2=O)[C@@H]1/C=C/C=C/C(=O)O [Compound 8] | > 70 | > 70 | > 70 | > 70 | 28 | > 70 | > 70 | 63 | 26 | solubility (in words) (Solubility in solvents): not soluble in any solvent; also recorded: too low
